Where two headings read alike, the source gives them in different places.
How the values were obtained:
[1] = bulk (non-pharmaceutical grade) substance, purity above 95%, Cayman leaflet; cited from earlier work
[2] = 250 mg/mL in DMSO, relative to week 0
Method: A 250 mg/mL solution of azacitidine (TEVA Sicor) in DMSO (Merck; Ph. Eur. grade quality) with a water content of less than 0.1 wt.-% was prepared and filled into (moisture proof) vials, which were subsequently sealed using rubber stoppers. […] The amount of azacitidine was analyzed using high performance liquid chromatography (HPLC) and comparing the integral of the azacitidine peak with the integral of a freshly prepared standard solution containing a predetermined amount of azacitidine.
HPLC measurements were carried out using an Agilent 1200 system (or equivalent). For detection, a UV detector (235 nm) was used. A YMC Hydrosphere C18 (250 mm*4.6 mm*[…]) column and a flow rate of 1.0 mL/min and a gradient of aq. pH 7 buffer solution (containing disodium hydrogen phosphate, orthophosphoric acid and ammonium formate)/acetonitrile from 100:0 to 40:60 were employed.

[3] = at 25° C. in water; cited from earlier work

Row | % of azacitidine at 25° C. ([2]; water <0.1 wt.-%, day 0) | % of azacitidine at 40° C. ([2]; water <0.1 wt.-%, day 0) | % of azacitidine at 25° C. ([2]; day 7) | % of azacitidine at 40° C. ([2]; day 7) | % of azacitidine at 25° C. ([2]; day 14) | % of azacitidine at 40° C. ([2]; day 14) | % of azacitidine at 25° C. ([2]; day 21) | % of azacitidine at 40° C. ([2]; day 21) | % of azacitidine at 25° C. ([2]; day 28) | % of azacitidine at 40° C. ([2]; day 28) | % of azacitidine at 25° C. ([2]; day 56) | % of azacitidine at 40° C. ([2]; day 56) | % of azacitidine at 25° C. ([2]; day 98) | % of azacitidine at 40° C. ([2]; day 98) | % of azacitidine at 25° C. ([2]; day 182) | % of azacitidine at 40° C. ([2]; day 182) | Compound | solubility in bulk DMSO [1] | solubility of azacitidine in water [3]
1 | 100% | 100% | 100% | 100% | 100% | 100% | 100% | 100% | 100% | 100% | 100% | 99% | 100% | 96% | 100% | 94% | Nc1ncn([C@@H]2O[C@H](CO)[C@@H](O)[C@H]2O)c(=O)n1 [azacitidine, 5-azacytidine] | approximately 30 mg/mL | 13.4 mg/mL
2 |  |  |  |  |  |  |  |  |  |  |  |  |  |  |  |  | Nc1ncn([C@H]2C[C@H](O)[C@@H](CO)O2)c(=O)n1 [decitabine, 5-aza-2′-deoxycytidine] | approximately 30 mg/mL | 

From patent publication US20220096507A1, “Parenteral Pharmaceutical Composition Comprising Azacitidine or Decitabine in DMSO” (Sandoz AG, priority 2020, published 2022)
